From patent US8003642B2, “Nitrogenated heterocyclic derivative, and pharmaceutical agent comprising the derivative as active ingredient” (Ono Pharmaceutical Co., Ltd., priority 2006, dated 2011)

Legend:
human CYP3A4 = target: T1, human CYP3A4 (Homo sapiens, UniProt P08684); test: Inhibitory activity against human CYP3A4 (7-benzyloxyquinoline substrate, expression system microsome); assay type: in vitro ADME; conditions: substrate 7-BQ 40 μM, expression system microsome 0.25 mg/mL, 30 minutes incubation, fluorescence
T1 construct: purchased Daiichikagakuyakuhin
T1 sequence (P08684 whole entry): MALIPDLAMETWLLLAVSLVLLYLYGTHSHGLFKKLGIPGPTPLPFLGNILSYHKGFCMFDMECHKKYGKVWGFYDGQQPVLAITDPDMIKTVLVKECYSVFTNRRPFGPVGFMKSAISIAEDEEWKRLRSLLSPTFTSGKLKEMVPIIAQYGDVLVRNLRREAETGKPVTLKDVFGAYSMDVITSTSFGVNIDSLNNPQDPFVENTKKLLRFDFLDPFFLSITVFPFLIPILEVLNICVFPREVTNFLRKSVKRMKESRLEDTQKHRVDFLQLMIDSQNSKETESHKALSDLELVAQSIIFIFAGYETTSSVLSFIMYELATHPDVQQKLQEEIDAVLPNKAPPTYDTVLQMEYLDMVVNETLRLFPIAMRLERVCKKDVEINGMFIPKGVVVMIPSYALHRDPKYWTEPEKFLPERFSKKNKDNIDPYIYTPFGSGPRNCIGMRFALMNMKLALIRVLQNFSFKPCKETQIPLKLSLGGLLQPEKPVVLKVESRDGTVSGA
Description: Inhibitory activity against human CYP3A4 of the compound of the present invention can be evaluated by an improved method described in Drug Metabolism and Disposition, Vol. 28(12), 1440-1448 (2000).
For example, a reaction solution consisted of potassium phosphate buffer (pH 7.4) (final concentration: 200 mM), magnesium chloride hexahydrate (final concentration: 5 mM), substrate (7-benzyloxyquinoline (7-BQ), final concentration: 40 μM), and expression system microsome (Daiichikagakuyakuhin, final concentration: 0.25 mg/mL) was prepared. 100 μL of the reaction solution is dispensed in 96 well plate, and added by 50 μL of an aqueous solution containing test a compound and 0.8% acetonitrile, to carry out 10 minutes of preincubation at 37° C. 50 μL of a reduced nicotinamide adenine dinucleotide phosphate (NADPH, 4 mM) is added to initiate a reaction. The fluorescence intensity of each well was measured at the time when NADPH was added and after incubated for 30 minutes. Excitation wavelength at 409 nm and emission wavelength at 530 nm of quinolinol, which is metabolite of substrate, was measured. Inhibition ratio (%) of the test compound was calculated by the following calculation formula to obtain IC50 value. Inhibition ratio(%)=[1−{(measured value when a test compound is added)−(blank value)/(control value−blank value)}]×100

human CCR5 = human CCR5 (Homo sapiens, UniProt P51681); test: CCR5 binding test ([125I]MIP-1β binding inhibition); conditions: inhibition of [125I]MIP-1β (0.1 nM) binding to membrane fraction of human CCR5 stably over-expressing CHO-K1 cell, 25° C., 120 minutes
Sequence of human CCR5 (P51681 whole entry): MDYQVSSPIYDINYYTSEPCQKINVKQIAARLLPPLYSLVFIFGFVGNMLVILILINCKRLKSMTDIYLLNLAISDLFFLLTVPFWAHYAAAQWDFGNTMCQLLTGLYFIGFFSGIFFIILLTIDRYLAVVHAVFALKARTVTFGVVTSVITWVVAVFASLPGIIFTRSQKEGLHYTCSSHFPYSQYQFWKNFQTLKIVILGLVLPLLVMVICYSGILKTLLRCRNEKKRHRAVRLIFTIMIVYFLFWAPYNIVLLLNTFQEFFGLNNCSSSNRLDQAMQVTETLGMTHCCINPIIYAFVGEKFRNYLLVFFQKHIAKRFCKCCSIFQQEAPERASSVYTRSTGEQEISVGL
Description: A membrane fraction of the human CCR5 stably over-expressing CHO-K1 cell was suspended in assay buffer (50 mM HEPES/0.5% BSA/1 mM calcium chloride/5 mM magnesium chloride, pH 7.4) and dispensed in a 48 well polypropylene plate with U-shaped bottom in the amount corresponding to 1 μg of protein/well. Then, an unlabelled ligand was added so as to obtain a concentration of 0.1 μM in a non-specific binding group, while a compound was added so as to obtain a final concentration of 0.003 to 0.3 μM in a compound group. Subsequently, [^125I]MIP-1β was added so as to obtain a final concentration of 0.1 nM and a mixture thereof was incubated at 25° C. for 120 minutes. The membrane fraction was trapped with a filter, washed, and then radioactivity of [^125I]MIP-1β was measured by a γ counter.
Inhibition ratio (%) of the test compound was calculated by the following calculation formula. Inhibition ratio=[(Ec−Ea)/Ec]×100 • Ec: Radioactivity of when DMSO control solution is added−radioactivity of non-specific binding group • Ea: Radioactivity of when test compound is added−radioactivity of non-specific binding group

IC50 (human CYP3A4) | IC50 (human CCR5) | Compound
≥ 30 µM | – | CCCCN(C(=O)Nc1cc(C(N)=O)c(F)cc1F)C1CCN(Cc2ccc(Oc3ccc(C(=O)N4CCN(C(C)=O)CC4)cc3)nc2C)CC1 [Example 16(60), 5-{[{1-[(6-{4-[(4-acetyl-1-piperazinyl)carbonyl]phenoxy}-2-methyl-3-pyridinyl)methyl]-4-piperidinyl}(butyl)carbamoyl]amino}-2,4-difluorobenzamide]
≥ 30 µM | ≤ 0.1 µM | CCCCN(C(=O)Nc1cc(C(N)=O)c(F)cc1F)C1CCN(Cc2ccc(Oc3ccc(C(=O)N(C)C)cc3)nc2C)CC1 [Example 16(61), 5-({butyl[1-({6-[4-(dimethylcarbamoyl)phenoxy]-2-methyl-3-pyridinyl}methyl)-4-piperidinyl]carbamoyl}amino)-2,4-difluorobenzamide]
– | ≤ 0.1 µM | CCCCN(C(=O)Nc1cc(C(N)=O)c(F)cc1F)C1CCN(Cc2ccc(Oc3ccc(C(=O)NCC)cc3)nc2C)CC1 [Example 16(62), 5-({butyl[1-({6-[4-(ethylcarbamoyl)phenoxy]-2-methyl-3-pyridinyl}methyl)-4-piperidinyl]carbamoyl}amino)-2,4-difluorobenzamide]
≥ 30 µM | – | CCCCN(C(=O)Nc1cc(C(N)=O)c(F)cc1F)C1CCN(Cc2ccc(Oc3ccc(C(=O)N4CCN(C)CC4)cc3)nc2C)CC1 [Example 16(63), 5-[(butyl {1-[(2-methyl-6-{4-[(4-methyl-1-piperazinyl)carbonyl]phenoxy}-3-pyridinyl)methyl]-4-piperidinyl}carbamoyl)amino]-2,4-difluorobenzamide]
